Reference: patent US20040116420A1 (priority 2001, published 2004)
pIC50: −log10 of the molar value.

Legend:
Vero cells = assay: Cytotoxicity, Vero cells, Alamar Blue; assay type: cell-based; conditions: 25 μM, 20 hours
Method in brief: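 Living-cell ratio versus untreated control was read by Alamar Blue absorbance after about 6 h of dye incubation. Before that, Vero cells had received 25 μM test compound in 2% FBS-DMEM for 20 hours at 37 °C under 5% CO2.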

HSV-1 = assay: Antiviral activity, HSV-1 in Vero cells, plaque method; assay type: cell-based; conditions: Human alphaherpesvirus 1, 20 hours, 90% inhibition of plaque formation
Method in brief: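 This is a virus-yield read-out. The culture medium was frozen at −80° C and thawed, and the plaques it formed were counted. It came from Vero monolayers infected with 50,000 pfu HSV-1 and then exposed to the compound for 20 h at 37° C. EC90 is the concentration inhibiting 90% of plaque formation relative to the untreated infected control.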

HSV-1 protease = target: T1, HSV-1 protease (Human herpesvirus 1, UniProt P10210); assay: Enzymatic assay for HSV-1 protease (assembly) inhibitor, fluorescence polarization; assay type: biochemical; conditions: read-out: HSV-1 Enzyme inhibition IC50
T1 construct: 6xHis (N); made in house; host or cells: baculovirus expression system
Method in brief: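 Fluorescence polarization read-out: after avidin stop, cleavage of a biotinylated DTAF-labelled release-site peptide by recombinant N-His6 HSV-1 protease was compared with no-inhibitor wells. Enzyme and compound were preincubated 30 min, then substrate reacted 60 min, all at room temperature, pH 7.4 citrate buffer with TCEP.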

T1 sequence (P10210 1-247): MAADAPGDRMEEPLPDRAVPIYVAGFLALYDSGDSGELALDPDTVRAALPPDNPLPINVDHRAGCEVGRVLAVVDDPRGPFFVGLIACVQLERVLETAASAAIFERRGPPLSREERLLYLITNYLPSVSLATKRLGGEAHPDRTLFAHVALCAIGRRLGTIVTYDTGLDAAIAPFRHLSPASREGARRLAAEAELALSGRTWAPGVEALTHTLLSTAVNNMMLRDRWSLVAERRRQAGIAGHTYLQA

| SMILES | Cell viability (% of control) (Vero cells) | EC90 (HSV-1) | pIC50 (HSV-1 protease) |
| --- | --- | --- | --- |
| Cc1c(NC(=O)c2ccc(CCl)cc2)ccc2nc(NC(C)(C)C(=O)N(C)CCc3ccccn3)oc(=O)c12 [Compound No.171, 4-Chloromethyl-N-(5-methyl-2-{1-methyl-1-[methyl-(2-pyridin-2-yl-ethyl)-carbamoyl]-ethylamino}-4-oxo-4H-benzo[d][1,3]oxazin-6-yl)-benzamide] | 16.1% | 10.2 µM | 5.68 |
| Cc1c(NC(=O)c2cccc(OC(F)(F)F)c2)ccc2nc(NC(C)(C)C(=O)N(C)CCc3ccccn3)oc(=O)c12 [Compound No.172, N-(5-Methyl-2-{1-methyl-1-[methyl-(2-pyridin-2-yl-ethyl)-carbamoyl]-ethylamino}-4-oxo-4H-benzo[d][1,3]oxazin-6-yl)-3-trifluoromethoxy-benzamide] | 17.4% | 9 µM | 5.92 |
| Cc1c(NC(=O)c2ccc(OC(F)(F)F)cc2)ccc2nc(NC(C)(C)C(=O)N(C)CCc3ccccn3)oc(=O)c12 [Compound No.173, N-(5-Methyl-2-{1-methyl-1-[methyl-(2-pyridin-2-yl-ethyl)-carbamoyl]-ethylamino}-4-oxo-4H-benzo[d][1,3]oxazin-6-yl)-4-trifluoromethoxy-benzamide] | 26.1% | 7.1 µM | 5.85 |
| Cc1oc(C(C)(C)C)cc1C(=O)Nc1ccc2nc(NC(C)(C)C(=O)N(C)CCc3ccccn3)oc(=O)c2c1C [Compound No.174, 5-tert-Butyl-2-methyl-furan-3-carboxylic acid (5-methyl-2-{1-methyl-1-[methyl-(2-pyridin-2-yl-ethyl)-carbamoyl]-ethylamino}-4-oxo-4H-benzo[d][1,3]oxazin-6-yl)-amide] | 30.1% | > 12.5 µM | 5.03 |
| Cc1cc(C(=O)Nc2ccc3nc(NC(C)(C)C(=O)N(C)CCc4ccccn4)oc(=O)c3c2C)c(C(F)(F)F)o1 [Compound No.175, 5-Methyl-2-trifluoromethyl-furan-3-carboxylic acid (5-methyl-2-{1-methyl-1-[methyl-(2-pyridin-2-yl-ethyl)-carbamoyl]-ethylamino}-4-oxo-4H-benzo [d][1,3]oxazin-6-yl)-amide] | 99.4% | > 12.5 µM | 5.60 |
| Cc1cc(C(=O)Nc2ccc3nc(NC(C)(C)C(=O)N(C)CCc4ccccn4)oc(=O)c3c2C)c(C)o1 [Compound No.176, 2,5-Dimethyl-furan-3-carboxylic acid (5-methyl-2-{1-methyl-1-[methyl-(2-pyridin-2-yl-ethyl)-carbamoyl]-ethylamino}-4-oxo-4H-benzo[d][1,3]oxazin-6-yl)-amide] | 93.3% | > 12.5 µM | 5.72 |
| Cc1c(NC(=O)c2ccc([N+](=O)[O-])o2)ccc2nc(NC(C)(C)C(=O)N(C)CCc3ccccn3)oc(=O)c12 [Compound No.177, 5-Nitro-furan-2-carboxylic acid (5-methyl-2-{1-methyl-1-[methyl-(2-pyridin-2-yl-ethyl)-carbamoyl]-ethylamino}-4-oxo-4H-benzo[d][1,3]oxazin-6-yl)-amide] | 38.0% | > 12.5 µM | 5.22 |
| Cc1c(NC(=O)c2sc3ccccc3c2Cl)ccc2nc(NC(C)(C)C(=O)N(C)CCc3ccccn3)oc(=O)c12 [Compound No.178, 3-Chloro-benzo[b]thiophene-2-carboxylic acid (5-methyl-2-{1-methyl-1-[methyl-(2-pyridin-2-yl-ethyl)-carbamoyl]-ethylamino}-4-oxo-4H-benzo[d][1,3]oxazin-6-yl)-amide] | 28.1% | 5.8 µM | 6.05 |
| Cc1c(NC(=O)c2sccc2Cl)ccc2nc(NC(C)(C)C(=O)N(C)CCc3ccccn3)oc(=O)c12 [Compound No.179, 3-Chloro-thiophene-2-carboxylic acid (5-methyl-2-{1-methyl-1-[methyl-(2-pyridin-2-yl-ethyl)-carbamoyl]-ethylamino}-4-oxo-4H-benzo[d][1,3]oxazin-6-yl)-amide] | 61.7% | 6.6 µM | 6.00 |
| Cc1c(NC(=O)c2scc(S(=O)(=O)C(C)C)c2Cl)ccc2nc(NC(C)(C)C(=O)N(C)CCc3ccccn3)oc(=O)c12 [Compound No.180, 3-Chloro-4-(propane-2-sulfonyl)-thiophene-2-carboxylic acid (5-methyl-2-{1-methyl-1-[methyl-(2-pyridin-2-yl-ethyl)-carbamoyl]-ethylamino}-4-oxo-4H-benzo[d][1,3]oxazin-6-yl)-amide] | 87.4% | > 12.5 µM | 5.72 |
| Cc1c(NC(=O)c2cc(Cl)sc2Cl)ccc2nc(NC(C)(C)C(=O)N(C)CCc3ccccn3)oc(=O)c12 [Compound No.181, 2,5-Dichloro-thiophene-3-carboxylic acid (5-methyl-2-{1-methyl-1-[methyl-(2-pyridin-2-yl-ethyl)-carbamoyl]-ethylamino}-4-oxo-4H-benzo[d][1,3]oxazin-6-yl)-amide] | 44.3% | 10.9 µM | 5.74 |
| Cc1c(NC(=O)c2ccccc2OC(F)(F)F)ccc2nc(NC(C)(C)C(=O)N(C)CCc3ccccn3)oc(=O)c12 [Compound No.182, N-(5-Methyl-2-{1-methyl-1-[methyl-(2-pyridin-2-yl-ethyl)-carbamoyl]-ethylamino}-4-oxo-4H-benzo[d][1,3]oxazin-6-yl)-2-trifluoromethoxy-benzamide] | 95.2% | > 12.5 µM | 5.31 |
| Cc1c(NC(=O)c2cccc(C(Cl)Cl)c2)ccc2nc(NC(C)(C)C(=O)N(C)CCc3ccccn3)oc(=O)c12 [Compound No.183, 3-Dichloromethyl-N-(5-methyl-2-{1-methyl-1-[methyl-(2-pyridin-2-yl-ethyl)-carbamoyl]-ethylamino}-4-oxo-4H-benzo[d][1,3]oxazin-6-yl)-benzamide] | 101.0% | > 12.5 µM | 5.89 |
| Cc1c(NC(=O)COCc2ccccc2)ccc2nc(NC(C)(C)C(=O)N(C)CCc3ccccn3)oc(=O)c12 [Compound No.184, 2-[6-(2-Benzyloxy-acetylamino)-5-methyl-4-oxo-4H-benzo[d][1,3]oxazin-2-ylamino]-2,N-dimethyl-N-(2-pyridin-2-yl-ethyl)-propionamide] | 93.1% | 12.1 µM | 5.68 |
| CCCCCc1ccc(C(=O)Nc2ccc3nc(NC(C)(C)C(=O)N(C)CCc4ccccn4)oc(=O)c3c2C)cc1 [Compound No.185, N-(5-Methyl-2-{1-methyl-1-[methyl-(2-pyridin-2-yl-ethyl)-carbamoyl]-ethylamino}-4-oxo-4H-benzo[d][1,3]oxazin-6-yl)-4-pentyl-benzamide] | 29.0% | 3.5 µM | 5.15 |
| Cc1c(NC(=O)c2ccccc2COC(=O)c2ccccc2)ccc2nc(NC(C)(C)C(=O)N(C)CCc3ccccn3)oc(=O)c12 [Compound No.186, Benzoic acid 2-(5-methyl-2-{1-methyl-1-[methyl-(2-pyridin-2-yl-ethyl)-carbamoyl]-ethylamino}-4-oxo-4H-benzo[d][1,3]oxazin-6-ylcarbamoyl)-benzyl ester] | 18.1% | 3.5 µM | 6.00 |
| CCc1ccc(C(=O)Nc2ccc3nc(NC(C)(C)C(=O)N(C)CCc4ccccn4)oc(=O)c3c2C)cc1 [Compound No.187, 4-Ethyl-N-(5-methyl-2-{1-methyl-1-[methyl-(2-pyridin-2-yl-ethyl)-carbamoyl]-ethylamino}-4-oxo-4H-benzo[d][1,3]oxazin-6-yl)-benzamide] | 65.8% | 4.5 µM | 5.96 |
| Cc1c(NC(=O)C2CCCC2)ccc2nc(NC(C)(C)C(=O)N(C)CCc3ccccn3)oc(=O)c12 [Compound No.188, Cyclopentanecarboxylic acid (5-methyl-2-{1-methyl-1-[methyl-(2-pyridin-2-yl-ethyl)-carbamoyl]-ethylamino}-4-oxo-4H-benzo[d][1,3]oxazin-6-yl)-amide] | 91.7% | > 12.5 µM | 5.85 |
| Cc1c(NC(=O)CCl)ccc2nc(NC(C)(C)C(=O)N(C)CCc3ccccn3)oc(=O)c12 [Compound No.189, 2-[6-(2-Chloro-acetylamino)-5-methyl-4-oxo-4H-benzo[d][1,3]oxazin-2-ylamino]-2,N-dimethyl-N-(2-pyridin-2-yl-ethyl)-propionamide] | 41.0% | > 12.5 µM | 5.70 |
| Cc1c(NC(=O)c2cccc3ccccc23)ccc2nc(NC(C)(C)C(=O)N(C)CCc3ccccn3)oc(=O)c12 [Compound No.190, Naphthalene-1-carboxylic acid (5-methyl-2-{1-methyl-1-[methyl-(2-pyridin-2-yl-ethyl)-carbamoyl]-ethylamino}-4-oxo-4H-benzo[d][1,3]oxazin-6-yl)-amide] | 74.5% | 12.4 µM | 5.89 |
| CC(=O)OC(C(=O)Nc1ccc2nc(NC(C)(C)C(=O)N(C)CCc3ccccn3)oc(=O)c2c1C)c1ccccc1 (stereo not drawn) [Compound No.192, Acetic acid (5-methyl-2-{1-methyl-1-[methyl-(2-pyridin-2-yl-ethyl)-carbamoyl]-ethylamino}-4-oxo-4H-benzo[d][1,3]oxazin-6-ylcarbamoyl)-phenyl-methyl ester] | 93.9% | > 12.5 µM | 5.14 |
